Assay results reported in patent US12528818B2, “Compositions and methods for inhibition of RAS” (Leidos Biomedical Research, Inc., priority 2021, dated 2026).

Tested on: pERK in NCI-H358 cells
Assay: Cell-based pERK HTRF assay (pERK inhibition in H358 cells)
Details: Homo sapiens, NCI-H358, 0.5 h, pERK inhibition IC50, NCI-H358 cells, 30 min incubation; read-out: PERK in H358 cell

`C=CC(=O)N1C[C@H](N(C)c2nc(OC[C@@]34CCCN3C[C@H](F)C4)nc3c(F)c(-c4ccc(F)c5sc(N)nc45)c(C(F)(F)F)cc23)C[C@H]1C` [Compound 274] and `C=CC(=O)N1C[C@H](N(C)c2nc(OC[C@@]34CCCN3C[C@H](F)C4)nc3c(F)c(-c4ccc(F)c5sc(N)nc45)c(C(F)(F)F)cc23)C[C@@H]1C` [Compound 293] cannot be ordered by IC50: less than 100 nM for the first, less than 100 nM for the second.

First: C=CC(=O)N1CC[C@@H](N(C)c2nc(OC[C@@]34CCCN3C[C@H](F)C4)nc3c(F)c(-c4ccc(F)c5oc(N)nc45)c(C(F)(F)F)cc23)C1 [Compound 275]
Second: C=CC(=O)N1CC[C@@H](N(C)c2nc(OC[C@@]34CCCN3C[C@H](F)C4)nc3c(F)c(-c4ccc(F)c5sc(C(F)F)nc45)c(C(F)(F)F)cc23)C1 [Compound 310]
The IC50 of the first is lower: less than 100 nM for the first, greater than 1000 nM for the second.

Compared with `C=CC(=O)N1C[C@@H](F)[C@@H](N(C)c2nc(OC[C@@]34CCCN3C[C@H](F)C4)nc3c(F)c(-c4ccc(F)c5sc(N)nc45)c(C(F)(F)F)cc23)C1` [Compound 279], `C=CC(=O)N1C[C@@H](C)[C@@H](N(C)c2nc(OC[C@@]34CCCN3C[C@H](F)C4)nc3c(F)c(-c4ccc(F)c5sc(N)nc45)c(C(F)(F)F)cc23)C1` [Compound 292] is higher in IC50: less than 100 nM for the first, 100 to 1000 nM for the second.

`C=CC(=O)N1C[C@H](C)N(c2nc(OC[C@@]34CCCN3C[C@H](F)C4)nc3c(F)c(-c4ccc(F)c5sc(N)nc45)c(OC(F)F)cc23)C[C@H]1C` [Compound 280] and `C=CC(=O)N1C[C@H](C)N(c2nc(OC[C@@]34CCCN3C[C@H](F)C4)nc3c(F)c(-c4ccc(F)c5sc(N)nc45)c(C(F)F)cc23)C[C@H]1C` [Compound 291] cannot be ordered by IC50: less than 100 nM for the first, less than 100 nM for the second.

`C=CC(=O)N1C[C@H](C)N(c2nc(OCC34CCCN3CCC4)nc3c(F)c(-c4ccc(F)c5sc(N)nc45)c(C(F)(F)F)cc23)C[C@H]1C` [Compound 281] and `C=CC(=O)N1C[C@H](C)N(c2nc(OC[C@@]34CCCN3C[C@H](F)C4)nc3c(Cl)c(-c4ccc(F)c5sc(N)nc45)c(C(F)(F)F)cc23)C[C@H]1C` [Compound 295, 1-((2R,5S)-4-(7-(2-amino-7-fluorobenzo[d]thiazol-4-yl)-8-chloro-2-(((2R,7aS)-2-fluorotetrahydro-1H-pyrrolizin-7a(5H)-yl)methoxy)-6-(trifluoromethyl)quinazolin-4-yl)-2,5-dimethylpiperazin-1-yl)prop-2-en-1-one] cannot be ordered by IC50: less than 100 nM for the first, less than 100 nM for the second.

First: C=CC(=O)N1C[C@@H]2C[C@H]1[C@@H]2N(C)c1nc(OC[C@@]23CCCN2C[C@H](F)C3)nc2c(F)c(-c3ccc(F)c4sc(N)nc34)c(C(F)(F)F)cc12 [Compound 282]
Second: C=CC(=O)N1C[C@H](C)[C@@H](N(C)c2nc(OC[C@@]34CCCN3C[C@H](F)C4)nc3c(F)c(-c4ccc(F)c5sc(N)nc45)c(C(F)(F)F)cc23)C1 [Compound 296]
The IC50 of the first is higher: greater than 1000 nM for the first, less than 100 nM for the second.

First: C=CC(=O)N1C[C@@H](N(C)c2nc(OC[C@@]34CCCN3C[C@H](F)C4)nc3c(F)c(-c4ccc(F)c5sc(N)nc45)c(C(F)(F)F)cc23)C(C)(C)C1 [Compound 283]
Second: C=CC(=O)N1C[C@H](N(C)c2nc(OC[C@@]34CCCN3C[C@H](F)C4)nc3c(F)c(-c4ccc(F)c5sc(N)nc45)c(C(F)(F)F)cc23)C(C)(C)C1 [Compound 301]
The IC50 of the first is higher: greater than 1000 nM for the first, less than 100 nM for the second. The second is the more potent here.

First: C=CC(=O)N1CCN(c2nc(OCC34CCCN3CCC4)nc3c(F)c(-c4ccc(F)c5sc(N)nc45)c(C(C)(F)F)cc23)CC1 [Compound 284]
Second: C=CC(=O)N1C[C@H](N(C)c2nc(OC[C@@]34CCCN3C[C@H](F)C4)nc3c(F)c(-c4ccc(F)c5sc(N)nc45)c(C(F)(F)F)cc23)C2(CC2)C1 [Compound 294]
The IC50 of the first is higher: greater than 1000 nM for the first, less than 100 nM for the second. The second is the more potent here.

`C=CC(=O)N1C[C@H](C)N(c2nc(OCC3(CN4CCOCC4)CC3)nc3c(F)c(-c4ccc(F)c5sc(N)nc45)c(C(F)(F)F)cc23)C[C@H]1C` [Compound 285] and `C=CC(=O)N1C[C@H](C)N(c2nc(OCC3(CN4CC[C@@H](F)C4)CC3)nc3c(F)c(-c4ccc(F)c5sc(N)nc45)c(C(F)(F)F)cc23)C[C@H]1C` [Compound 286] cannot be ordered by IC50: less than 100 nM for the first, less than 100 nM for the second.

`C=CC(=O)N1CC[C@@H](N(C)c2nc(OCC3(CN4CCOCC4)CC3)nc3c(F)c(-c4ccc(F)c5sc(N)nc45)c(C(F)(F)F)cc23)C1` [Compound 287] and `C=CC(=O)N1CC[C@@H](N(C)c2nc(OCC3(CN4CC[C@@H](F)C4)CC3)nc3c(F)c(-c4ccc(F)c5sc(N)nc45)c(C(F)(F)F)cc23)C1` [Compound 288] cannot be ordered by IC50: less than 100 nM for the first, less than 100 nM for the second.

`C=CC(=O)N1CC[C@@H](N(C)c2nc(OC[C@@]34CCCN3C[C@H](OC)C4)nc3c(F)c(-c4ccc(F)c5sc(N)nc45)c(C(F)(F)F)cc23)C1` [Compound 290] and `C=C(F)C(=O)N1CC[C@@H](N(C)c2nc(OC[C@@]34CCCN3C[C@H](F)C4)nc3c(F)c(-c4ccc(F)c5sc(N)nc45)c(C(F)(F)F)cc23)C1` [Compound 308] cannot be ordered by IC50: less than 100 nM for the first, less than 100 nM for the second.

`C=CC(=O)N1C[C@H](C)N(c2nc(OC[C@@]34CCCN3C[C@H](F)C4)nc3cc(-c4c(F)cc(F)c5sc(N)nc45)c(C(F)(F)F)cc23)C[C@H]1C` [Compound 298, 1-((2R,5S)-4-(7-(2-amino-5,7-difluorobenzo[d]thiazol-4-yl)-2-(((2R,7aS)-2-fluorotetrahydro-1H-pyrrolizin-7a(5H)-yl)methoxy)-6-(trifluoromethyl)quinazolin-4-yl)-2,5-dimethylpiperazin-1-yl)prop-2-en-1-one] and `C=CC(=O)N1C[C@H](C)N(c2nc(OC[C@@]34CCCN3C[C@H](F)C4)nc3cc(-c4ccc(F)c5sc(N)nc45)c(C(F)(F)F)cc23)C[C@H]1C` [Compound 299] cannot be ordered by IC50: less than 100 nM for the first, less than 100 nM for the second.

`C=CC(=O)N1CC[C@@H](N(C)c2nc(OC[C@@]34CCCN3C[C@H](F)C4)nc3cc(-c4ccc(F)c5sc(N)nc45)c(C(F)(F)F)cc23)C1` [Compound 300] and `C=CC(=O)N1C[C@H](N(C)c2nc(OC[C@@]34CCCN3C[C@H](F)C4)nc3cc(-c4ccc(F)c5sc(N)nc45)c(C(F)(F)F)cc23)C[C@H]1C` [Compound 309] cannot be ordered by IC50: less than 100 nM for the first, less than 100 nM for the second.

`C=CC(=O)N1C[C@H](C)N(c2nc(OC[C@@]34CCCN3C[C@H](F)C4)nc3cc(-c4ccc(F)c5sc(N)c(C#N)c45)c(C(F)(F)F)cc23)C[C@H]1C` [Compound 304] and `C=CC(=O)N1C[C@H](C)N(c2nc(OC[C@@]34CCCN3C[C@H](F)C4)nc3c(F)c(-c4ccc(F)c5sc(N)c(C#N)c45)ccc23)C[C@H]1C` [Compound 312] cannot be ordered by IC50: less than 100 nM for the first, less than 100 nM for the second.

`C=CC(=O)N1CC[C@@H](N(C)c2nc(OC[C@@]34CCCN3C[C@H](F)C4)nc3cc(-c4c(F)cc(F)c5sc(N)nc45)c(C(F)(F)F)cc23)C1` [Compound 305] and `C=CC(=O)N1C[C@@H](F)[C@@H](N(C)c2nc(OC[C@@]34CCCN3C[C@H](F)C4)nc3cc(-c4ccc(F)c5sc(N)nc45)c(C(F)(F)F)cc23)C1` [Compound 317] cannot be ordered by IC50: less than 100 nM for the first, less than 100 nM for the second.

`C=CC(=O)N1CC[C@@H](N(C)c2nc(OC[C@@]34CCCN3C[C@H](F)C4)nc3cc(-c4ccc(F)c5sc(N)c(C#N)c45)c(C(F)(F)F)cc23)C1` [Compound 306] and `C=CC(=O)N1C[C@@H](F)[C@@H](N(C)c2nc(OC[C@@]34CCCN3C[C@H](F)C4)nc3cc(-c4ccc(F)c5sc(N)c(C#N)c45)c(C(F)(F)F)cc23)C1` [Compound 315, 4-(4-(((3S,4R)-1-acryloyl-4-fluoropyrrolidin-3-yl)(methyl)amino)-2-(((2R,7aS)-2-fluorotetrahydro-1H-pyrrolizin-7a(5H)-yl)methoxy)-6-(trifluoromethyl)quinazolin-7-yl)-2-amino-7-fluorobenzo[b]thiophene-3-carbonitrile] cannot be ordered by IC50: less than 100 nM for the first, less than 100 nM for the second.

`C=CC(=O)N1C[C@H](C)N(c2nc(OCC34CCCN3C[C@H](F)C4)nc3c(F)c(-c4ccc(F)c5sc(C(F)F)nc45)c(C(F)(F)F)cc23)C[C@H]1C` (stereo partly shown) [Compound 307] and `C=CC(=O)N1[C@@H](C)CN(c2nc(OC[C@@]34CCCN3C[C@H](F)C4)nc3c(F)c(-c4ccc(F)c5sc(N)c(C#N)c45)c(C(F)(F)F)cc23)C[C@@H]1C` [Compound 321] cannot be ordered by IC50: less than 100 nM for the first, less than 100 nM for the second.

`C=CC(=O)N1CC[C@@H](N(C)c2nc(OC[C@@]34CCCN3C[C@H](F)C4)nc3c(F)c(-c4ccc(F)c5sc(N)c(C#N)c45)ccc23)C1` [Compound 311] and `C=CC(=O)N1C[C@H](N(C)c2nc(OC[C@@]34CCCN3C[C@H](F)C4)nc3c(F)c(-c4ccc(F)c5sc(N)c(C#N)c45)ccc23)C[C@H]1C` [Compound 319] cannot be ordered by IC50: less than 100 nM for the first, less than 100 nM for the second.

`C=CC(=O)N1C[C@@H](F)[C@@H](N(C)c2nc(OC[C@@]34CCCN3C[C@H](F)C4)nc3c(F)c(-c4ccc(F)c5sc(N)c(C#N)c45)c(C(F)(F)F)cc23)C1` [Compound 316] and `C=CC(=O)N1C[C@H](F)[C@@H](N(C)c2nc(OC[C@@]34CCCN3C[C@H](F)C4)nc3cc(-c4ccc(F)c5sc(N)c(C#N)c45)c(C(F)(F)F)cc23)C1` [Compound 320] cannot be ordered by IC50: less than 100 nM for the first, less than 100 nM for the second.

`C=CC(=O)N1CCN(c2nc(OC[C@@]34CCCN3C[C@H](F)C4)nc3c(F)c(-c4ccc(F)c5sc(N)c(C#N)c45)c(C(F)(F)F)cc23)C[C@H]1C` [Compound 318] and `C=CC(=O)N1CCN(c2nc(OC[C@@]34CCCN3C[C@H](F)C4)nc3c(F)c(-c4ccc(F)c5sc(N)c(C#N)c45)c(C(F)(F)F)cc23)CC12CC2` [Compound 322] cannot be ordered by IC50: less than 100 nM for the first, less than 100 nM for the second.

`C=CC(=O)N1C[C@H](C)N(c2nc(OC[C@@]34CCCN3C[C@H](F)C4)nc3c(F)c(-c4ccc(F)c5sc(N)c(C#N)c45)c(C#N)cc23)C[C@H]1C` [Compound 324, 4-((2S,5R)-4-acryloyl-2,5-dimethylpiperazin-1-yl)-7-(2-amino-3-cyano-7-fluorobenzo[b]thiophen-4-yl)-8-fluoro-2-(((2R,7aS)-2-fluorotetrahydro-1H-pyrrolizin-7a(5H)-yl)methoxy)quinazoline-6-carbonitrile] and `C=CC(=O)N1CC[C@@H](N(C)c2nc(OC[C@@]34CCCN3C[C@H](F)C4)nc3c(F)c(-c4ccc(F)c5sc(N)c(C#N)c45)c(C#N)cc23)C1` [Compound 325] cannot be ordered by IC50: less than 100 nM for the first, less than 100 nM for the second.

Same assay, conditions: pERK inhibition IC50, NCI-H358 cells, 30 min incubation; read-out: PERK in H358 cell

`C=CC(=O)N1C[C@H](C)N(c2nc(OC[C@@]34CCCN3C[C@H](OC)C4)nc3c(F)c(-c4ccc(F)c5sc(N)nc45)c(C(F)(F)F)cc23)C[C@H]1C` [Compound 297] gave an IC50 of less than 100 nM.
